From US12389907B2, “Compounds with nematicidal activity to pinewood nematode Bursaphelenchus xylophilus” (KOREA ADVANCED INSTITUTE OF SCIENCE AND TECHNOLOGY, priority 2023, dated 2025)

System: pinewood nematode (Bursaphelenchus xylophilus)
Experiment: Nematode screening: mortality of pinewood nematode in 96-well plate, propidium iodide staining
Format: cell-based
Details: compound dissolved in polar solvent DMSO, nematode treated with the solution
Method: Nematode Screening Method and Test Results
(1) A pinewood nematode sample was prepared so that 130 to 150 nematodes were present per 40 μL.
(2) The pinewood nematode sample was dispensed into a 96-well plate by 40 μL. Triplicates were prepared for each sample.
(3) Each compound was dispensed into each well containing the pinewood nematode sample. The tested compounds were (±)-orthosporin and 6,8-dihydroxy-3-methylisocoumarin, and each compound was dissolved in 1% DMSO solvent at a concentration of 20 μM. The chemical formulas of the compounds are illustrated in FIG. 1.
(4) After 120 hours, 20 μL of 50 μM propidium iodide was dispensed into each well containing the sample, and then shaking incubation was performed at RT for 15 minutes.
(5) The mortality rate was evaluated by counting only dead pinewood nematodes stained red in the total number of nematodes using a fluorescence microscope.

## CC(O)Cc1cc2cc(O)cc(O)c2c(=O)o1 (racemic) [Chemical Formula 3, 6,8-dihydroxy-3-(2-hydroxypropyl)-1H-isochromen-1-one]
  effect of killing the nematode: have the effect of killing the nematode

## Cc1cc2cc(O)cc(O)c2c(=O)o1 [Chemical Formula 2, 6,8-dihydroxy-3-methyl-1H-isochromen-1-one]
  effect of killing the nematode: have the effect of killing the nematode
